Test results taken from US20230364070A1, “PYRROLO[3,2-C]PYRIDIN-4-ONE DERIVATIVES USEFUL IN THE TREATMENT OF CANCER” (Scorpion Therapeutics, Inc., priority 2020, published 2023).

Experiments:
Format in all cases: cell-based
[1] = biological target: T1, Ba/F3 cells with EGFR WT (Homo sapiens, UniProt P00533); assay: EGFR activity: Ba/F3 cell viability (CellTiter-Glo, 72 h), EGFR WT; details: read-out: BaF3 WT IC50
T1 construct: expressed in transfected cells; host or cells: Ba/F3 (murine pro-B cells), retroviral transduction, puromycin selection, maintained with EGF

[2] = biological target: T2, Ba/F3 cells with EGFR exon 20 ASV Ins V769_D770 (Homo sapiens, UniProt P00533, INS769ASV); assay: EGFR activity: Ba/F3 cell viability (CellTiter-Glo, 72 h), EGFR exon 20 ASV insertion; details: EGFR exon 20 ASV Ins V769_D770, cell viability, read-out: BaF3 ASV IC50
T2 construct: expressed in transfected cells; host or cells: Ba/F3 (murine pro-B cells), retroviral transduction, puromycin selection, IL3-independent pool

[3] = biological target: T3, Ba/F3 cells with EGFR exon 20 NPG Ins D770_N771 (Homo sapiens, UniProt P00533, INS770NPG); assay: EGFR activity: Ba/F3 cell viability (CellTiter-Glo, 72 h), EGFR exon 20 NPG insertion; details: EGFR exon 20 NPG Ins D770_N771, cell viability, read-out: BaF3 NPG IC50
T3 construct: expressed in transfected cells; host or cells: Ba/F3 (murine pro-B cells), retroviral transduction, puromycin selection, IL3-independent pool
T3 sequence (P00533 with tags, fused parts or gaps INS770NPG): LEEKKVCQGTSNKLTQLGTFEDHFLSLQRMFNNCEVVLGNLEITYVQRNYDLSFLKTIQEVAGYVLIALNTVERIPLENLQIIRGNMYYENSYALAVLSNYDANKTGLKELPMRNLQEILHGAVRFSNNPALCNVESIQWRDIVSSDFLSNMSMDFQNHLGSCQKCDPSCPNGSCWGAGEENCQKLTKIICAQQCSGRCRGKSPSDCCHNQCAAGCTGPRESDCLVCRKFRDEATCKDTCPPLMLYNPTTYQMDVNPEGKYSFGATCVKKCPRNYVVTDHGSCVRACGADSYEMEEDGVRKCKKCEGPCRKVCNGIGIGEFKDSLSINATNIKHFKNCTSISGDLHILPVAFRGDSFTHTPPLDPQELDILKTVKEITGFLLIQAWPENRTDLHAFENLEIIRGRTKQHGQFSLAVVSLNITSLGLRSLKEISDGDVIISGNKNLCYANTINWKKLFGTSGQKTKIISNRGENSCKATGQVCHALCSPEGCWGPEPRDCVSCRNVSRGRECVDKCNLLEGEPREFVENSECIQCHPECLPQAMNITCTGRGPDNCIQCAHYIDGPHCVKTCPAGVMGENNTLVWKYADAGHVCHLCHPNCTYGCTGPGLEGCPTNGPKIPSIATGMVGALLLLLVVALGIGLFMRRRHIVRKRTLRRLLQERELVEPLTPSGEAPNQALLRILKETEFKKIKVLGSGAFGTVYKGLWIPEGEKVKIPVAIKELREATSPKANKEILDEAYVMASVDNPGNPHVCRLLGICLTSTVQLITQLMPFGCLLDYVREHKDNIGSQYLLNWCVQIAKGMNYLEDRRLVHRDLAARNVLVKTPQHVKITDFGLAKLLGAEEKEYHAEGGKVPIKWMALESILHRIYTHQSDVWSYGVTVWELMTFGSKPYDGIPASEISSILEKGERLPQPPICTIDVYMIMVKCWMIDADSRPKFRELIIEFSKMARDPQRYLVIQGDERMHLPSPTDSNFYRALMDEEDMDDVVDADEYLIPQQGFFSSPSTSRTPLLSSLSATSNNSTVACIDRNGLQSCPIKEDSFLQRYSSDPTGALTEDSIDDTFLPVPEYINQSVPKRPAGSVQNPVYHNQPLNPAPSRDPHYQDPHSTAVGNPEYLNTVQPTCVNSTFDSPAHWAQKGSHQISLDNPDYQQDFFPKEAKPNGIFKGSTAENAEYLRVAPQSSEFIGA

T1 sequence (P00533 25-1210): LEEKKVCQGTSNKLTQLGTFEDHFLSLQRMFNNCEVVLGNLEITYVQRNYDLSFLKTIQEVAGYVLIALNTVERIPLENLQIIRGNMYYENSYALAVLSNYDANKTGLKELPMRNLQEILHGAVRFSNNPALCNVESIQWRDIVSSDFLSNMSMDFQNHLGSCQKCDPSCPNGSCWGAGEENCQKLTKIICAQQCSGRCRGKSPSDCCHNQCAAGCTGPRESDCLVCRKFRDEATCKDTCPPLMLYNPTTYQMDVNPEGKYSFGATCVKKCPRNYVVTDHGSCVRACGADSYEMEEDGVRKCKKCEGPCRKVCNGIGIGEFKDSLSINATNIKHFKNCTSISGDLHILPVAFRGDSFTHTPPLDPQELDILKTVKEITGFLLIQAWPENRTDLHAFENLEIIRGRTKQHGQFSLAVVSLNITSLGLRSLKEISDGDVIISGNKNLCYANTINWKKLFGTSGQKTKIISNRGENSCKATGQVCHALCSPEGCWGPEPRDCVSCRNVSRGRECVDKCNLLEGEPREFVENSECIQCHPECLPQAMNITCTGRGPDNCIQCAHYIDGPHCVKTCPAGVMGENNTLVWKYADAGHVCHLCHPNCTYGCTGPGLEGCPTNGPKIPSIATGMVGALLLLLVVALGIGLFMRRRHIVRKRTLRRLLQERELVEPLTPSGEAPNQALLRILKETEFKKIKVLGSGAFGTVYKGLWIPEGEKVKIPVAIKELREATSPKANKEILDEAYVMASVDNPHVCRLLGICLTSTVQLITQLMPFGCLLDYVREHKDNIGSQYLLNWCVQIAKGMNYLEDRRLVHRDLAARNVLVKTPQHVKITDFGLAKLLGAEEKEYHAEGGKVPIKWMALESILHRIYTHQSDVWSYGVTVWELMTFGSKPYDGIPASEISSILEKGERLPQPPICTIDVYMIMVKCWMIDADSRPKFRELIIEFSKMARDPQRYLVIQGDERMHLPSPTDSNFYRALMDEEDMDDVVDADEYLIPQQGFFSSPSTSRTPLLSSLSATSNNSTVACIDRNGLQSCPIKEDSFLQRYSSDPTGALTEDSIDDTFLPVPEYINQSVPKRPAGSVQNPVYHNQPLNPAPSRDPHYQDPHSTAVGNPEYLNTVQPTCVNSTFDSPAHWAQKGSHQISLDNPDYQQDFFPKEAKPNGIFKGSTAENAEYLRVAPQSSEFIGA
T2 sequence (P00533 with tags, fused parts or gaps INS769ASV): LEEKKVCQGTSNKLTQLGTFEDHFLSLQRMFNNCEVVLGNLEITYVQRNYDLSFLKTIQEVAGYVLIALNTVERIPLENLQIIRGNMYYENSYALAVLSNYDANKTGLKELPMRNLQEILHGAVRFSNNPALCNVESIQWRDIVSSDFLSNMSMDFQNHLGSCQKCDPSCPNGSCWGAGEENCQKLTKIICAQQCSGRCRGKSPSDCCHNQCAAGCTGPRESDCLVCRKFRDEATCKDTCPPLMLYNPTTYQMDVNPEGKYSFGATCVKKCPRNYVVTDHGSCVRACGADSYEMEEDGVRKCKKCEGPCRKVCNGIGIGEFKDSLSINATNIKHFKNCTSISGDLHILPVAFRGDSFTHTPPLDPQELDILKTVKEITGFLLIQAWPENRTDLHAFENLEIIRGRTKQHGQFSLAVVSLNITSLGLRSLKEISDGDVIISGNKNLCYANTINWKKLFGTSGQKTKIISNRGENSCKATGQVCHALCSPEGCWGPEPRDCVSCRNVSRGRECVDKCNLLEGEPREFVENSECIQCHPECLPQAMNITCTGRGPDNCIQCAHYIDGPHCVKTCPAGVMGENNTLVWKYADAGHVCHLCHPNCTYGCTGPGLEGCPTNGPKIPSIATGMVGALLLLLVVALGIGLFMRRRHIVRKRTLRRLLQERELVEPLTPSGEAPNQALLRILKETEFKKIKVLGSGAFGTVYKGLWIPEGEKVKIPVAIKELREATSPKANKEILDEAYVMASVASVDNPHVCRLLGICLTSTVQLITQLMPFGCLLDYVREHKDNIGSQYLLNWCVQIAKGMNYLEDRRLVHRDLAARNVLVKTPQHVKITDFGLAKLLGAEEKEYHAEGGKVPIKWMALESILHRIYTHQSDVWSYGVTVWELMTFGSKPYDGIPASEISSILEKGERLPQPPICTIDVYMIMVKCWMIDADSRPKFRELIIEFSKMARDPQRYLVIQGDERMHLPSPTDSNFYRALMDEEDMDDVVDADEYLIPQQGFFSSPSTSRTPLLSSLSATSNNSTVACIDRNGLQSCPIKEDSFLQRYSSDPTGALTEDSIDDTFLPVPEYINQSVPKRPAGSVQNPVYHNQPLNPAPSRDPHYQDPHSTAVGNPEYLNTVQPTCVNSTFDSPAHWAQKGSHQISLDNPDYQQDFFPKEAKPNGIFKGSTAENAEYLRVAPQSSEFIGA

| Structure (SMILES) | IC50 [1] | IC50 [2] | IC50 [3] |
| --- | --- | --- | --- |
| COc1c(F)cccc1Nc1c(-c2ccncc2C#C[C@@H]2CCCO2)[nH]c2c1C(=O)NCC2 (single isomer, unassigned) [Compound 148a] | > 1000 nM | 100 to 1000 nM |  |
| COc1c(F)cccc1Nc1c(-c2ccncc2C#CC2CCCO2)[nH]c2c1C(=O)NCC2 (single isomer, unassigned) [Compound 148b] | > 1000 nM | 100 to 1000 nM |  |
| COc1c(F)cccc1Nc1c(-c2ccncc2OCCOC2CC2)[nH]c2c1C(=O)NCC2 [Compound 135, 2-(3-(2-cyclopropoxyethoxy)pyridin-4-yl)-3-((3-fluoro-2-methoxyphenyl)amino)-1,5,6,7-tetrahydro-4H-pyrrolo[3,2-c]pyridin-4-one] | > 1000 nM |  | > 1000 nM |
| COc1c(Cl)cccc1Nc1c(-c2ccncc2OC[C@@H]2CCCN2S(C)(=O)=O)[nH]c2c1C(=O)NCC2 [Compound 142a, (S)-3-((3-chloro-2-methoxyphenyl)amino)-2-(3-((1-(methylsulfonyl)pyrrolidin-2-yl)methoxy)pyridin-4-yl)-1,5,6,7-tetrahydro-4H-pyrrolo[3,2-c]pyridin-4-one] | 100 to 1000 nM |  | 100 to 1000 nM |
| COc1c(F)cccc1Nc1c(-c2ccncc2C#CC(C)(C)OC)[nH]c2c1C(=O)NCC2 [compound 149] | > 1000 nM |  | 100 to 1000 nM |
| C=CC(=O)N1CCC[C@H]1COc1cnccc1-c1[nH]c2c(c1Nc1cccc(Cl)c1CC)C(=O)NCC2 [compound 216, 3-[(3-chloro-2-ethylphenyl)amino]-2-(3-{[(2S)-1-(prop-2-enoyl)pyrrolidin-2-yl]methoxy}pyridin-4-yl)-1H,5H,6H,7H-pyrrolo[3,2-c]pyridin-4-one] | 100 to 1000 nM | < 100 nM | < 100 nM |
| C=CC(=O)N1CC(C)(C)C[C@@H]1C#Cc1cnccc1-c1[nH]c2c(c1Nc1cccc(Cl)c1OC)C(=O)NCC2 [compound 235, 3-[(3-chloro-2-methoxyphenyl)amino]-2-(3-{2-[(2R)-4,4-dimethyl-1-(prop-2-enoyl)pyrrolidin-2-yl]ethynyl}pyridin-4-yl)-1H,5H,6H,7H-pyrrolo[3,2-c]pyridin-4-one] | < 100 nM | < 100 nM | < 100 nM |
| C=CC(=O)N1[C@H](C)CC[C@@H]1C#Cc1cnccc1-c1[nH]c2c(c1Nc1cccc(Cl)c1OC)C(=O)NCC2 [compound 238, 3-[(3-chloro-2-methoxyphenyl)amino]-2-(3-{2-[(2R,5R)-5-methyl-1-(prop-2-enoyl)pyrrolidin-2-yl]ethynyl}pyridin-4-yl)-1H,5H,6H,7H-pyrrolo[3,2-c]pyridin-4-one] | 100 to 1000 nM | < 100 nM | < 100 nM |
| C=CC(=O)N1[C@H](C)CC[C@H]1C#Cc1cnccc1-c1[nH]c2c(c1Nc1cccc(Cl)c1OC)C(=O)NCC2 [compound 239, 3-[(3-chloro-2-methoxyphenyl)amino]-2-(3-{2-[(2S,5R)-5-methyl-1-(prop-2-enoyl)pyrrolidin-2-yl]ethynyl}pyridin-4-yl)-1H,5H,6H,7H-pyrrolo[3,2-c]pyridin-4-one] | < 100 nM | < 100 nM | < 100 nM |
| C=CC(=O)N1[C@H](C)CC[C@@H]1C#Cc1cnccc1-c1[nH]c2c(c1Nc1cccc(F)c1OC)C(=O)NCC2 [compound 256, 3-[(3-fluoro-2-methoxyphenyl)amino]-2-(3-{2-[(2R,5R)-5-methyl-1-(prop-2-enoyl)pyrrolidin-2-yl]ethynyl}pyridin-4-yl)-1H,5H,6H,7H-pyrrolo[3,2-c]pyridin-4-one] | 100 to 1000 nM | < 100 nM | < 100 nM |
| C=CC(=O)NC1(C#Cc2cnccc2-c2[nH]c3c(c2Nc2cccc(F)c2OC)C(=O)NCC3)CCC1 [compound 262, N-{1-[2-(4-{3-[(3-fluoro-2-methoxyphenyl)amino]-4-oxo-1H,5H,6H,7H-pyrrolo[3,2-c]pyridin-2-yl}pyridin-3-yl)ethynyl]cyclobutyl}prop-2-enamide] | 100 to 1000 nM | < 100 nM | < 100 nM |
| CC#CC(=O)N1CCOC[C@@H]1COc1cnccc1-c1[nH]c2c(c1Nc1cccc(F)c1OC)C(=O)NCC2 [compound 293, 2-(3-{[(3R)-4-(but-2-ynoyl)morpholin-3-yl]methoxy}pyridin-4-yl)-3-[(3-fluoro-2-methoxyphenyl)amino]-1H,5H,6H,7H-pyrrolo[3,2-c]pyridin-4-one] | > 1000 nM | > 1000 nM | > 1000 nM |
| COc1c(F)cccc1Nc1c(-c2ccncc2C#C[C@H]2CCCN2C(=O)/C=C/CN(C)C)[nH]c2c1C(=O)NCC2 [compound 303, 2-(3-{2-[(2R)-1-[(2E)-4-(dimethylamino)but-2-enoyl]pyrrolidin-2-yl]ethynyl}pyridin-4-yl)-3-[(3-fluoro-2-methoxyphenyl)amino]-1H,5H,6H,7H-pyrrolo[3,2-c]pyridin-4-one] | > 1000 nM | 100 to 1000 nM | 100 to 1000 nM |
| C=CC(=O)N1CCC[C@]1(C)C#Cc1cnccc1-c1[nH]c2c(c1Nc1cccc(F)c1C)C(=O)NCC2 [compound 304, 3-[(3-fluoro-2-methylphenyl)amino]-2-(3-{2-[(2R)-2-methyl-1-(prop-2-enoyl)pyrrolidin-2-yl]ethynyl}pyridin-4-yl)-1H,5H,6H,7H-pyrrolo[3,2-c]pyridin-4-one] | < 100 nM | < 100 nM | < 100 nM |
| C=CC(=O)N1CC[C@@H]1[C@H](C)Oc1cnccc1-c1[nH]c2c(c1Nc1cccc(F)c1OC)C(=O)NCC2 [compound 310, 3-[(3-fluoro-2-methoxyphenyl)amino]-2-{3-[(1S)-1-[(2R)-1-(prop-2-enoyl)azetidin-2-yl]ethoxy]pyridin-4-yl}-1H,5H,6H,7H-pyrrolo[3,2-c]pyridin-4-one] | > 1000 nM | 100 to 1000 nM | 100 to 1000 nM |
| CC#CC(=O)N1CC[C@H]1C#Cc1cnccc1-c1[nH]c2c(c1Nc1cccc(Cl)c1OC)C(=O)NCC2 [compound 371] | 100 to 1000 nM | < 100 nM | < 100 nM |
| CC#CC(=O)N1CC[C@@H]1C#Cc1cnccc1-c1[nH]c2c(c1Nc1cccc(Cl)c1OC)C(=O)NCC2 [compound 372] | 100 to 1000 nM | < 100 nM | < 100 nM |
| C=CC(=O)NC1(C#Cc2cnccc2-c2[nH]c3c(c2Nc2cccc(F)c2OC)C(=O)NCC3)CC2(COC2)C1 [compound 402] | > 1000 nM | 100 to 1000 nM | 100 to 1000 nM |
| COc1c(F)cccc1Nc1c(-c2ccncc2C#C[C@H]2CCC[C@H]2OC)[nH]c2c1C(=O)NCC2 [compound 485] | 100 to 1000 nM | < 100 nM |  |

| Structure (SMILES) | IC50 [1] | IC50 [2] | IC50 [3] |
| --- | --- | --- | --- |
| COc1c(F)cccc1Nc1c(-c2ccncc2C#C[C@@H]2CCC[C@@H]2OC)[nH]c2c1C(=O)NCC2 [compound 486] | > 1000 nM | 100 to 1000 nM |  |
| COc1c(Cl)cccc1Nc1c(-c2ccncc2C#CC2(OC)COC2)[nH]c2c1C(=O)NCC2 [compound 491] | 100 to 1000 nM | < 100 nM |  |
| COc1ccccc1C#Cc1cnccc1-c1[nH]c2c(c1Nc1cccc(Cl)c1OC)C(=O)NCC2 [compound 497] | 100 to 1000 nM | < 100 nM |  |
| Cc1c(F)cccc1Nc1c(-c2ccncc2C#CC2CC2)[nH]c2c1C(=O)NCC2 [compound 498] | > 1000 nM | 100 to 1000 nM |  |
| COCC#Cc1cnccc1-c1[nH]c2c(c1Nc1cccc(F)c1C)C(=O)NCC2 [compound 500] | > 1000 nM | 100 to 1000 nM |  |
| COc1ccccc1C#Cc1cnccc1-c1[nH]c2c(c1Nc1cccc(F)c1C)C(=O)NCC2 [compound 501] | 100 to 1000 nM | < 100 nM |  |
| COc1ccc(C#Cc2cnccc2-c2[nH]c3c(c2Nc2cccc(F)c2C)C(=O)NCC3)cn1 [compound 502] | > 1000 nM | 100 to 1000 nM |  |
| COc1cccnc1C#Cc1cnccc1-c1[nH]c2c(c1Nc1cccc(F)c1C)C(=O)NCC2 [compound 503] | 100 to 1000 nM | 100 to 1000 nM |  |
| Cc1c(F)cccc1Nc1c(-c2ccncc2C#CC2CCOCC2)[nH]c2c1C(=O)NCC2 [compound 504] | > 1000 nM | 100 to 1000 nM |  |
| Cc1c(F)cccc1Nc1c(-c2ccncc2C#CCN2CCOCC2)[nH]c2c1C(=O)NCC2 [compound 505] | > 1000 nM | > 1000 nM |  |
| Cc1c(F)cccc1Nc1c(-c2ccncc2C#Cc2cnn(C)c2)[nH]c2c1C(=O)NCC2 [compound 506] | > 1000 nM | 100 to 1000 nM |  |
| Cc1c(F)cccc1Nc1c(-c2ccncc2C#CC2(C)COC2)[nH]c2c1C(=O)NCC2 [compound 507] | > 1000 nM | 100 to 1000 nM |  |
| Cc1c(F)cccc1Nc1c(-c2ccncc2C#CC2CCOC2)[nH]c2c1C(=O)NCC2 (centres unmarked) [compound 508] | > 1000 nM | 100 to 1000 nM |  |
| Cc1c(F)cccc1Nc1c(-c2ccncc2C#CC2COC2)[nH]c2c1C(=O)NCC2 [compound 509] | > 1000 nM | 100 to 1000 nM |  |
| C=CC(=O)N1CC(F)(F)C[C@H]1C#Cc1cnccc1-c1[nH]c2c(c1Nc1cccc(Cl)c1OC)C(=O)NCC2 [compound 520] | < 100 nM | < 100 nM |  |
| COC(C)C#Cc1cnccc1-c1[nH]c2c(c1Nc1cccc(F)c1C)C(=O)NCC2 (centres unmarked) [compound 524] | > 1000 nM | 100 to 1000 nM |  |
| COc1c(Cl)cccc1Nc1c(-c2ccncc2C#CC2CCC2)[nH]c2c1C(=O)NCC2 [compound 525] | > 1000 nM | < 100 nM |  |
| C=CC(=O)N1CCC1C#Cc1cnccc1-c1[nH]c2c(c1Nc1cccc(F)c1OC)C(=O)NCC2 (centres unmarked) [compound 544] | < 100 nM | < 100 nM |  |
| COc1c(Cl)cccc1Nc1c(-c2ccncc2C#CC2CC(F)(F)C2)[nH]c2c1C(=O)NCC2 [compound 548] | > 1000 nM | 100 to 1000 nM |  |
